This note sets out measurements from ChEMBL document CHEMBL1201862, “PubChem BioAssay data set” (2004).

Holding throughout (assay): NCI tumour cell line growth inhibition, 48 h
The subject of experiment [1] is SK-OV-3.
Experiment [2] deals with MOLT-4.
The subject of experiment [3] is SF-268.
Experiment [4] concerns RPMI-8226.
Experiment [5] concerns HOP-62.
Experiment [6] relates to NCI-H460.
Experiment [7] relates to HL-60.
Experiment [8] deals with OVCAR-5.
The test system of experiment [9] is MDA-MB-231.
Experiment [10] deals with MDA-MB-435.
The subject of experiment [11] is SNB-75.
The subject of experiment [12] is SR.
The test system of experiment [13] is UO-31.
Experiment [14] deals with NCI-H522.
For experiment [15], the system named is PC-3.
For experiment [16], the system named is NCI/ADR-RES.
For experiment [17], the system named is CCRF-CEM.
For experiment [18], the system named is SNB-19.
For experiment [19], the system named is SK-MEL-5.
For experiment [20], the system named is A498.

Structures are written as SMILES.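 Values below derive from 48-hour exposures of cells grown in 96-well plates, with endpoints linearly interpolated between the two concentrations bracketing the appropriate inhibition level. Here, GI50 denotes the concentration required for 50% inhibition of growth.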 Activity calls are given as the source filed them. Rule as the data show it: active = GI50 up to about 1.1 µM and inactive = higher.

Consider `CC(=O)O[C@H]1C(=O)[C@]2(C)[C@@H](OC(=O)OCC(O)CO)C[C@H]3OC[C@@]3(OC(C)=O)[C@H]2[C@H](OC(=O)c2ccccc2)[C@]2(O)C[C@H](OC(=O)[C@H](O)[C@@H](NC(=O)c3ccccc3)c3ccccc3)C(C)=C1C2(C)C` (stereo not given in full) [PACLITAXEL CERIBATE], for which the GI50 in experiment [1], in experiment [2], in experiment [3], in [4], in [5] and in experiment [6] was < 0.01 µM (active) in each case. For the same compound, the GI50 in experiment [7], in experiment [8], in [9], in experiment [10], in [11] and in experiment [12] was < 0.01 µM (active) each time. For the same compound, the GI50 in experiment [13] is 0.601 µM (active); in experiment [14], < 0.01 µM (active); in experiment [15] it was < 0.01 µM (active); in experiment [16], 1.1 µM (active); in experiment [17], < 0.01 µM (active); in [18] it was < 0.01 µM (active). The GI50 in experiment [19] was < 0.01 µM (active).
Regarding `CCN1CCC(O)(/C=C/c2cccc(C)c2)C(C(=O)/C=C/c2cccc(C)c2)C1` (stereo not given), the GI50 in experiment [1] is 3.35 µM (inactive); in experiment [2] it was 2.43 µM (inactive); in experiment [3] it was 1.74 µM (inactive); in experiment [4] it was 1.77 µM (inactive); in experiment [6] it was 2.12 µM (inactive); in [7], 61.4 µM (inactive). For the same compound, the GI50 in [8] was 2.64 µM (inactive); in experiment [9] it was 3.35 µM (inactive); in experiment [10] it was 2.02 µM (inactive); in [20], 2.03 µM (inactive); in experiment [11] it was 2.09 µM (inactive); in experiment [12], 3.74 µM (inactive). The GI50 in experiment [13] was 1.69 µM (inactive); in experiment [14], 2.21 µM (inactive); in experiment [15], 13.3 µM (inactive); in [16], 2.19 µM (inactive); in [17] it was 1.57 µM (inactive); in experiment [18] it was 4.31 µM (inactive). Also, the GI50 in experiment [19] was 1.88 µM (inactive).
As to `COC(=O)C1=C(O)C(C(=O)OC)[C@@]2(O)[C@@H](C(=O)OC)C(c3ccc(OC(=O)/C(=C/c4ccc(Cl)cc4)c4ccc(Cl)cc4)cc3)C[C@@H]1[C@@H]2C(=O)OC` (stereo not given in full), the GI50 in experiment [1] is > 100 µM (inactive); in experiment [2], 4.45 µM (inactive); in experiment [3], 99.3 µM (inactive); in [5], > 100 µM (inactive); in [6], 14.4 µM (inactive); in [7], 34.6 µM (inactive). The GI50 in experiment [8] is 30.1 µM (inactive); in experiment [9], 19.1 µM (inactive); in experiment [10] it was 23.5 µM (inactive); in experiment [20], > 100 µM (inactive); in experiment [11], 28.3 µM (inactive); in [12], 9.06 µM (inactive). Moreover, the GI50 is 12.6 µM (inactive) in experiment [13]; 36.6 µM (inactive) in experiment [14]; 24.1 µM (inactive) in experiment [15]; 57.7 µM (inactive) in experiment [16]; 6.3 µM (inactive) in experiment [17]; 61.9 µM (inactive) in experiment [18]. Further, in experiment [19], the GI50 was 26.1 µM (inactive).
Consider `CN(C)C(=O)C1CCN(Cc2c[nH]c3ccccc23)CC1`, for which the GI50 in experiment [1], in experiment [2], in experiment [3], in experiment [4], in experiment [5] and in [7] was > 100 µM (inactive) in each case. The GI50 in experiment [8], in experiment [9], in experiment [10], in [20], in experiment [11] and in experiment [12] was > 100 µM (inactive) in each case. The GI50 in experiment [13], in experiment [14], in experiment [15], in experiment [16], in experiment [18] and in experiment [19] was > 100 µM (inactive) in each case.
Turning to `CN/N=C(\C)C(CN(C)C)C(c1ccccc1)c1c(O)c2ccccc2oc1=O` (stereo not given), the GI50 was 75.5 µM (inactive) in experiment [2]; > 100 µM (inactive) in [3]; 42 µM (inactive) in experiment [4]; > 100 µM (inactive) in experiment [5]; > 100 µM (inactive) in [6]; 29.7 µM (inactive) in experiment [7]. In addition, the GI50 in [8] is > 100 µM (inactive); in experiment [9], > 100 µM (inactive); in experiment [10], > 100 µM (inactive); in [20], > 100 µM (inactive); in experiment [11] it was > 100 µM (inactive); in [12], 67.9 µM (inactive). The GI50 in experiment [13] is > 100 µM (inactive); in experiment [14], > 100 µM (inactive); in experiment [15], > 100 µM (inactive); in experiment [16], > 100 µM (inactive); in experiment [17], 73.6 µM (inactive); in [18] it was > 100 µM (inactive). In [19], the GI50 is > 100 µM (inactive).
Regarding `CC1OC2(CC(OCc3ccccc3)C1OCc1ccccc1)OCCO2` (stereo not given), the GI50 in experiment [1] was > 100 µM (inactive); in experiment [2] it was 27.3 µM (inactive); in experiment [3], 60.1 µM (inactive); in [4] it was 35.2 µM (inactive); in experiment [5], > 100 µM (inactive); in [6], 32 µM (inactive). Further, the GI50 was 20 µM (inactive) in experiment [7]; 51.3 µM (inactive) in [8]; 37 µM (inactive) in experiment [9]; 57 µM (inactive) in [10]; 12.8 µM (inactive) in [20]; 21.1 µM (inactive) in experiment [12]. Also, the GI50 in experiment [13] is 42.3 µM (inactive); in experiment [14], 31.2 µM (inactive); in experiment [15] it was 59.8 µM (inactive); in experiment [16], 39.1 µM (inactive); in [17], 34.4 µM (inactive); in experiment [18], 44.3 µM (inactive). Moreover, in experiment [19], the GI50 was 33 µM (inactive).
With `CCCCCC(=O)CCCCCCCC(O)CC(=O)OCC` (stereo not given), the GI50 in experiment [2] was > 100 µM (inactive); in [3] it was > 100 µM (inactive); in [4], > 100 µM (inactive); in experiment [5], > 100 µM (inactive); in [6], > 100 µM (inactive); in experiment [7], 48.9 µM (inactive). The GI50 in experiment [8], in [9], in experiment [10], in [20], in experiment [12] and in experiment [13] was > 100 µM (inactive) throughout. Moreover, the GI50 in experiment [14], in experiment [15], in experiment [16], in experiment [17], in experiment [18] and in experiment [19] was > 100 µM (inactive) in each case.
For `COC(=O)C1CCC(=O)N1C(c1ccccc1)c1cc(OC)c(OC)c(OC)c1` (stereo not given), the GI50 in experiment [1] is > 100 µM (inactive); in experiment [2], 31.8 µM (inactive); in experiment [3] it was > 100 µM (inactive); in [5], > 100 µM (inactive); in experiment [6] it was 43 µM (inactive); in [7] it was 29.4 µM (inactive). Further, the GI50 in experiment [8] was > 100 µM (inactive); in experiment [9] it was 41.3 µM (inactive); in [10], 22.3 µM (inactive); in experiment [20], 82.4 µM (inactive); in experiment [12], 50.9 µM (inactive); in experiment [13], 55.1 µM (inactive). Also, the GI50 is 40.2 µM (inactive) in experiment [14]; 51.3 µM (inactive) in experiment [15]; 76 µM (inactive) in experiment [16]; 53.3 µM (inactive) in experiment [17]; 76.4 µM (inactive) in experiment [18].
For `O=C1C=C(N2CCN(c3ncccn3)CC2)C(=O)c2c(O)ccc(O)c21`, the GI50 in [1] was > 100 µM (inactive); in experiment [2], > 100 µM (inactive); in [3] it was > 100 µM (inactive); in [5] it was 49.2 µM (inactive); in [6], > 100 µM (inactive); in experiment [7] it was > 100 µM (inactive). The GI50 in experiment [8] was > 100 µM (inactive); in [9] it was > 100 µM (inactive); in experiment [10] it was 7.21 µM (inactive); in [20] it was > 100 µM (inactive); in experiment [12] it was > 100 µM (inactive); in experiment [13], > 100 µM (inactive). Further, the GI50 in experiment [14] is > 100 µM (inactive); in experiment [15] it was > 100 µM (inactive); in [16], > 100 µM (inactive); in [17], > 100 µM (inactive); in experiment [18], > 100 µM (inactive); in [19] it was 21.5 µM (inactive).
With `N#CC(NCCc1ccccc1)c1ccccc1` (stereo not given), the GI50 in experiment [1], in experiment [2], in experiment [3], in experiment [4], in [5] and in experiment [6] was > 100 µM (inactive) each time. In addition, the GI50 in [7], in [8], in experiment [9], in experiment [10], in experiment [11] and in [12] was > 100 µM (inactive) each time. Moreover, the GI50 in experiment [13], in [14], in experiment [15], in experiment [16], in experiment [17] and in experiment [18] was > 100 µM (inactive) in each case. The GI50 in experiment [19] was > 100 µM (inactive).
